Experimental data taken from US20110160180A1, “Cannabinoid Receptor Ligands” (ASTRAZENECA AB, priority 2008, published 2011).
Values joined by “and” are separate entries in the source; they are usually repeats but may differ in a detail not shown here. Equal entries are not always repeated.

target: Human CB1 receptor (hCB1) (Homo sapiens, UniProt P21554); test: hCB1 GTPγS binding; type: biochemical; conditions: hCB1 membranes, GTPg35S binding; maximal stimulated binding determined with 10 μM Win 55,212-2
Procedure: hCB1 and hCB2GTPγS Binding
Human CB1 receptor from Receptor Biology (hCB1) or human CB2 receptor membranes (BioSignal) are thawed at 37° C., passed 3 times through a 25-gauge blunt-end needle and diluted in the GTPγS binding buffer (50 mM Hepes, 20 mM NaOH, 100 mM NaCl, 1 mM EDTA, 5 mM MgCl2, pH 7.4, 0.1% BSA). […] The basal and maximal stimulated binding is determined in absence and presence of 1 μM (hCB2) or 10 μM (hCB1) Win 55,212-2 respectively. The membranes are pre-incubated for 5 minutes with 56.25 μM (hCB2) or 112.5 μM (hCB1) GDP prior to distribution in plates (15 μM (hCB2) or 30 μM (hCB1) GDP final). The plates are vortexed and incubated for 60 minutes at room temperature, filtered on Unifilters GF/B (presoaked in water) with the Tomtec or Packard harvester using 3 ml of wash buffer (50 mM Tris, 5 mM MgCl2, 50 mM NaCl, pH 7.0). The filters are dried for 1 hour at 55° C. The radioactivity (cpm) is counted in a TopCount (Packard) after adding 65 μl/well of MS-20 scintillation liquid. Antagonist reversal studies are done in the same way except that (a) an agonist dose-response curve is done in the presence of a constant concentration of antagonist, or (b) an antagonist dose-response curve is done in the presence of a constant concentration of agonist.

Chain of Human CB1 receptor (hCB1) (P21554 whole entry): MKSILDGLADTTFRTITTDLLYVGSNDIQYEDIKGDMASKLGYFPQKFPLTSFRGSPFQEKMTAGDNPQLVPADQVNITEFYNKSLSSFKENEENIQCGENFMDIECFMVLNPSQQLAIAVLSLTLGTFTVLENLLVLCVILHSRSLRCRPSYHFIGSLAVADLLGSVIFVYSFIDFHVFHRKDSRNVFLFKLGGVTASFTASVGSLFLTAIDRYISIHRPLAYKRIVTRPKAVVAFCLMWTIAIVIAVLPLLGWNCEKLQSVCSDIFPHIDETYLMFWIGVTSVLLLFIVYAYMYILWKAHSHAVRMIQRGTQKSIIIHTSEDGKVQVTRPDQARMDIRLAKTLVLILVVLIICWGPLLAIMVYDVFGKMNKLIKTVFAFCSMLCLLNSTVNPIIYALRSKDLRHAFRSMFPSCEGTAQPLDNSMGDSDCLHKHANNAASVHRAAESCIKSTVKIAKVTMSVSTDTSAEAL

Row | Compound | hCB1 EMax
1 | Cn1c2c(c3cc(C(=O)N4CC[C@H](C(=O)NC5CC5)C4)ccc31)CC(C1CCOCC1)CC2 (stereo partly drawn) [(3S)-N-cyclopropyl-1-[9-methyl-6-(oxan-4-yl)5,6,7,8-tetrahydrocarbazole-3-carbonyl]pyrrolidine-3-carboxamide] | 127%
2 | CN(CC(=O)NC1CC1)C(=O)c1ccc2c(c1)c1c(n2C)CCC(C2CCOCC2)C1 (centres unmarked) [N-(cyclopropylcarbamoylmethyl)-N,9-dimethyl-6-(oxan-4-yl)-5,6,7,8-tetrahydrocarbazole-3-carboxamide] | 107%
3 | CNC(=O)CCCN(C)C(=O)c1ccc2c(c1)c1c(n2C)CCC(C2CCOCC2)C1 (centres unmarked) [N,9-dimethyl-N-[3-(methylcarbamoyl)propyl]-6-(oxan-4-yl)-5,6,7,8-tetrahydrocarbazole-3-carboxamide] | 121%
4 | CCN(CC(=O)NC1CC1)C(=O)c1ccc2c(c1)c1c(n2C)CCC(C2CCOCC2)C1 (centres unmarked) [N-(cyclopropylcarbamoylmethyl)-N-ethyl-9-methyl-6-(oxan-4-yl)-5,6,7,8-tetrahydrocarbazole-3-carboxamide] | 118% and 106%
5 | CCN(CC(=O)NCCO)C(=O)c1ccc2c(c1)c1c(n2S(=O)(=O)CC)CCC(C2CCOCC2)C1 (centres unmarked) [N-ethyl-9-ethylsulfonyl-N-(2-hydroxyethylcarbamoylmethyl)-6-(oxan-4-yl)-5,6,7,8-tetrahydrocarbazole-3-carboxamide] | 115%
6 | CN(CCCC(=O)NCCF)C(=O)c1ccc2c(c1)c1c(n2C)CCC(C2CCOCC2)C1 (centres unmarked) [N-[3-(2-fluoroethylcarbamoyl)propyl]-N,9-dimethyl-6-(oxan-4-yl)-5,6,7,8-tetrahydrocarbazole-3-carboxamide] | 131% and 112%
7 | CCN(CC(=O)NCCF)C(=O)c1ccc2c(c1)c1c(n2C)CCC(C2CCOCC2)C1 (centres unmarked) [N-ethyl-N-(2-fluoroethylcarbamoylmethyl)-9-methyl-6-(oxan-4-yl)-5,6,7,8-tetrahydrocarbazole-3-carboxamide] | 119% and 111%
8 | Cn1c2c(c3cc(C(=O)N4CC[C@H](C(=O)NCCF)C4)ccc31)CC(C1CCOCC1)CC2 (stereo partly drawn) [(3S)-N-(2-fluoroethyl)-1-[9-methyl-6-(oxan-4-yl)5,6,7,8-tetrahydrocarbazole-3-carbonyl]pyrrolidine-3-carboxamide] | 113%
